The record followed here is patent US20180360072A1 (priority 2017, published 2018).

The subject of experiment [1] is C. perfringens. As to the kind of experiment: microbe, parasite or virus in culture. It is filed as cell-based, Clostridium perfringens.
Experiment [2] concerns E. maxima and C. perfringens. The class given is in vivo, broiler chicks.
The subject of another experiment is C. jejuni. As to the kind of experiment: C. jejuni in vitro growth inhibition in BHI broth (OD600). It is filed as cell-based, Campylobacter jejuni. As to conditions: 1 mM, 48 hours in BHI broth; for C. jejuni growth, OD600: microaerobic, without bile acid 0.153. Here is the method: To evaluate bile acids on C. jejuni growth, the bacterium was inoculated in BHI broth. The medium was also added final concentration of 0, 0.2, 0.5, and 1 mM DCA, and 1 mM TCA and CA. After 48-hour culture under microaerobic condition, the bacterium growth was measured at OD600.

The subject of experiment [3] is E. maxima and C. perfringens. The class given is in vivo, broiler chicks. This is another data set of the same source.
In experiment [4] the test system is C. perfringens. The class given is in vivo, broiler chicks. As to conditions: DCA birds vs NE control birds; 16S rDNA real time PCR. (Real-time PCR tracks product formation cycle by cycle.)
Experiment [5] has as its system C. perfringens 16S, Cpb and Virx mRNA. More on the design: species or system broiler chicks. As to conditions: in vivo.
The test system of another experiment is Ptgs2 and Atp6vg1 mRNA. As to the kind of experiment: Host response gene mRNA accumulation in ileal tissue (real time PCR). The settings on record: DCA diet; chicken ileal tissue; normalized to Gapdh. It is filed as in vivo. Here is the method:
Total RNA from chicken intestinal tissue was extracted using TRIzol (Invitrogen, Carlsbad, Calif.). Briefly, after bead beater disruption in TRIzol and chloroform and centrifugation, supernatant was precipitated with isopropanol. The pelleted RNA was washed once with 75% ethanol. The final RNA was dissolved in DNase/RNase free water and stored in −80° C. freezer. Complementary DNA was prepared using M-MLV (NEB).
Messenger RNA levels of proinflammatory genes were determined using SYBR Green PCR Master Mix (Bio-Rad, Hercules, Calif.) on an Bio-Rad 384-well Real-Time PCR System and normalized to Gapdh. The polymerase chain reactions were performed on 384-well real time PCR machine (Bio-Rad, Hercules, Calif.) according to the manufacturer's recommendation. […]

Experiment [6] can be described thus: Separate growth experiment, 26 days: body weight gain and ileal fat and nitrogen levels. The class given is in vivo, broiler chicks. The settings on record: 1.5 g/kg feed DCA diet for 26 days vs basal diet. Here is the method:
In a separate experiment, birds were fed diet supplementing with DCA at 1.5 g/kg feed. After 26 days the birds were weighed and sacrificed and ileal content were collected. The dry matter (DM), crude fat, and nitrogen levels in the ileal content was analyzed at the Central Analytical Lab at Department of Poultry Science at University of Arkansas at Fayetteville, Ark.

Another experiment concerns C. jejuni strain 81-176. Nature of the experiment: C. jejuni 81-176 cecal colonization in broiler chicks fed DCA diet. The class given is in vivo. The settings on record: 1.5 g/kg DCA diet, 10^9 CFU/chick C. jejuni 81-176 at 14 days of age.
A short description of experiment [7]: Broiler growth performance (body weight gain, feed conversion ratio) on DCA diet. The class given is in vivo, broiler chicks.
In a further experiment the test system is Infγ, Tnfα and Mmp9 mRNA. More on the design: species or system broiler chicks. As to conditions: in vivo.

Like-named read-outs stand apart in the source and are kept apart here.

Regarding `C[C@H](CCC(=O)O)[C@H]1CC[C@H]2[C@@H]3[C@H](O)C[C@@H]4C[C@H](O)CC[C@]4(C)[C@H]3C[C@H](O)[C@]12C` [CA, cholic acid], in the experiment with C. perfringens [1] (Clostridium perfringens, 1 mM, read-out: inhibition of C. perfringens growth), the inhibition – broadly, the share of the control response that was lost under treatment – at 1000 µM is 30%. For the same compound, in experiment [2] (in vivo), the “productivity / body weight gain loss at NE phase” value is given as “attenuated body weight gain loss” and the “productivity / body weight gain loss at coccidiosis phase” value is listed as “failed”. For the same compound, in the experiment with C. jejuni, the “effect on C. jejuni growth” value was “failed to inhibit C. jejuni growth” and the “C. jejuni growth, OD600” value turned out to be 0.19. The “NE-induced intestinal inflammation and histopathology score” value in [3] (in vivo) is “reduces bird NE intestinal inflammation”.
Consider `C[C@H](CCC(=O)O)[C@H]1CC[C@H]2[C@@H]3CC[C@@H]4C[C@H](O)CC[C@]4(C)[C@H]3C[C@H](O)[C@]12C` [DCA, deoxycholic acid], for which, in the experiment with C. perfringens [1] (0.4 mM, TSB, overnight, anaerobic, OD600), the “inhibition of C. perfringens growth” value was 87%. In addition, in the experiment on C. perfringens [4], the “ileal luminal C. perfringens load” value was “not significantly different from NE control birds”. Moreover, in experiment [2] (1.5 g/kg diet, d 18-23, compared to Em and NE control birds), the “productivity / body weight gain loss at coccidiosis phase” value is recorded as “prevented productivity loss”. In addition, the “productivity / body weight gain loss at NE phase” value in [2] (1.5 g/kg diet, d 23-26, compared to NE control birds) is “prevented productivity loss”. In addition, in experiment [2] (1.5 g/kg diet, during 1-14 and 14-18 days of age, compared to birds fed other diets), the “growth performance on body weight gain and feed efficiency before infection” value was “promoted bird growth performance on body weight gain (FIG. 9A) and feed efficiency”. Besides, in [5], the “block of C. perfringens 16S mRNA accumulation” value was found to be 97%, the “block of C. perfringens Cpb mRNA accumulation” value is reported as 61% and the “block of C. perfringens Virx mRNA accumulation” value stood at 61%. Besides, in the experiment on Ptgs2 and Atp6vg1 mRNA, the “Atp6vg1 mRNA accumulation change compared to control diet” value is given as “+40%” and the “Ptgs2 mRNA accumulation change compared to control diet” value is “+92%”. For the same compound, in the experiment on C. jejuni, the “effect on C. jejuni growth” value was “slightly enhanced but not inhibit C. jejuni growth” and the “C. jejuni growth, OD600” value is 0.213. Moreover, the “growth performance on body weight gain” value in [6] is on record as “promoted bird growth performance on body weight gain”. Further, the “C. jejuni colonization level in ceca” value in the experiment on C. jejuni strain 81-176 (2 days PI) was 0 CFU/g. The “C. jejuni colonization level in ceca” value with C. jejuni strain 81-176 (7 days PI) is listed as 9.0×10^2 CFU/g. In addition, the “C. jejuni colonization level in ceca” value in the experiment on C. jejuni strain 81-176 (14 days PI) was 0 CFU/g. Further, the “NE-induced intestinal inflammation and histopathology score” value in experiment [3] (1.5 g/kg diet, upper ileum, H&E, vs NE control birds) is recorded as “significantly attenuated”. Moreover, in experiment [7], the “accumulative feed conversion ratio improvement compared to control diet” value stood at 16.6%. In experiment [7] (at 28 days of age), the “body weight gain increase compared to control diet” value came out at 11.9%. Moreover, in experiment [7] (at 28 days of age, control diet 2.86), the body weight gain is 3.20 lb. Moreover, the “accumulative feed conversion ratio” value in [7] (control diet 1.81, lower value means better feed efficiency) turned out to be 1.51. Moreover, in the experiment on Infγ, Tnfα and Mmp9 mRNA, the “attenuation of NE-induced Infγ mRNA accumulation” value was found to be 51%, the “attenuation of NE-induced Mmp9 mRNA accumulation” value is recorded as 66% and the “attenuation of NE-induced Tnfα mRNA accumulation” value amounted to 82%.
As to `C[C@H](CCC(=O)NCCS(=O)(=O)O)[C@H]1CC[C@H]2[C@@H]3[C@H](O)C[C@@H]4C[C@H](O)CC[C@]4(C)[C@H]3C[C@H](O)[C@]12C` [TCA, taurocholic acid, reference compound], in the experiment with C. perfringens [1], the “inhibition of C. perfringens growth” value is listed as “failed to prevent its growth”. In the experiment on C. jejuni, the “effect on C. jejuni growth” value is given as “failed to inhibit C. jejuni growth” and the “C. jejuni growth, OD600” value was determined as 0.197.
